Test results from patent US8003331B2, “Method for identifying target protein of drug and method for screening therapeutic agent for diabetes using the target protein” (Astellas Pharma Inc., priority 2005, dated 2011).
Entries after “also recorded” stand apart in the source; their conditions may differ.

How the values were obtained:
TNF-α = TNF-α gene expression in HeLa S3 cell (real time PCR, corrected by β-actin); assay type: cell-based, human; conditions: okadaic acid 50 nM
Method: The pcDNA-TARDBP or an empty vector (pcDNA3.1) (Invitrogen) was transferred into HeLa S3 cell. Illustratively, the HeLa S3 cell (ATCC) was firstly cultured in a 12 well culture plate until it reached a state of 70% confluent, by adding 1 ml of a minimum essential medium DMEM (Gibco) containing 10% fetal bovine serum (Sigma) to each well of the culture plate. The medium was substituted by 0.5 ml per well of a serum-free medium OPTI MEM I (Invitrogen), and 0.8 μg/well of the pcDNA-TARDBP or pcDNA3.1 was transiently transferred using Lipofect amine 2000 (Invitrogen). After 12 hours of the culturing, this was substituted by 1 ml/well of DMEM containing 10% of fetal bovine serum and further cultured for 12 hours. This was further cultured for 16 hours under a condition of adding or not adding okadaic acid (Wako Pure Chemical Industries) to a final concentration of 50 nM. In this case, […] was added a part of the cells simultaneously with the okadaic acid treatment. The medium was discarded, the cells were washed twice with ice-cooled PBS, and then these cells were frozen and stored at −80° C.
Total RNA was prepared from each cell frozen in the aforementioned Example 9(2), using a reagent for RNA extraction use (Isogen; Nippon Gene) and in accordance with the instructions attached thereto. The thus prepared each total RNA was then treated with a deoxyribonuclease (Nippon Gene), subjected to phenol/chloroform treatment and ethanol precipitation and dissolved in sterile water. Using 1 μg of this total RNA, its reverse transcription into a single-stranded cDNA was carried out in a system of 20 μl using a kit for reverse transcription reaction use (Advantage™ RT-for-PCR Kit; Clontech).
Six oligonucleotides (SEQ ID NO:97 to SEQ ID NO:102) were designed and synthesized as primers of PCR for the measurement of gene expression quantity. A combination of SEQ ID NO:97 and SEQ ID NO:98 was used for human β-actin gene, and a combination of SEQ ID NO:99 and SEQ ID NO:100 for human TNF-α gene, and a combination of SEQ ID NO:101 and SEQ ID NO:102 for human TARDBP gene, respectively. […]
The expression quantities of human TNF-α gene and human TARDBP gene in each sample were corrected by the expression quantity of β-actin gene based on the following equation. [Corrected expression quantity of TNF-α or TARDBP]=[expression quantity of TNF-α or TARDBP gene (raw data)/[expression quantity of β-actin gene (raw data)]
In comparing the expression quantities of TNF-α and TARDBP genes, relative amounts were calculated by regarding the expression quantity in a cell, into which an empty vector (pcDNA3.1) was transferred and which was treated only with the solvent (DMSO), as 100, with the results sown in FIG. 9 and FIG. 10. […]

db/db mouse = assay: blood sugar level and blood lactic acid level in db/db mouse after intraperitoneal administration; assay type: in vivo; conditions: db/db mice, fasting, metformin 300 mg/kg; for blood lactic acid level: compound 100 mg/kg, 0, 90, 180 minutes; for hypoglycemic action (blood sugar level): compound 100 mg/kg, 90 and 180 minutes, vs vehicle group
Excerpt: As described in the aforementioned Example 6, the compound A and compound B found by the screening method of the present invention have the ability to activate AMPK in cells. Next, whether or not these compounds have the in vivo hypoglycemic action similar to the case of biguanide was examined. At the same time, action of the aforementioned 2 compounds on the increase of blood lactic acid value as an adverse side effect of biguanide was also examined. A total of 15 animals of 11 weeks of age of db/db mouse (BKS.Cg-+Leprdb/+Leprdb/Jcl; CLEA Japan) as a diabetes model mouse were divided into 3 groups, each consisting of 5 animals. […] They were subjected to fasting at the same time with the administration, and blood samples were collected from the tail of each animal 0 minute, 90 minutes and 180 minutes thereafter to measure blood sugar level and blood lactic acid level. The blood sugar level was measured using a simplified blood sugar analyzer (Acu Check Active II; Roche), and the blood lactic acid level was measured using a simplified lactic acid analyzer (Lactate Pro; Arkray Marketing), respectively. In the same manner, 12 animals of the db/db mouse of 18 weeks of age were divided in 3 groups, 4 animals for each. […] In the same manner as the above, they were subjected to fasting at the same time with the administration, and the blood sugar level and blood lactic acid level were respectively measured 0 minute, 90 minutes and 180 minutes thereafter in the same as described in the above.

human ATP5B [1] = molecular target: T1, human ATP5B (Homo sapiens, UniProt P06576); assay: competitive inhibition of binding of ATP5B and MTX-phenformin; conditions: MTX-phenformin 10 μM; free phenformin 10 μM; compounds A and B 'addition of 10'
T1 construct: an attempt was made to amplify complete length cDNA of human ATP5B; made in house; host or cells: cell-free: TNT Quick Coupled Transcription/Translation System (Promega) from pcDNA-ATP5B; GST-DHFR from E. coli BL21

AMPK = AMPK activation ability detection in HeLa S3 cell (anti-phospho AMPK western blotting); assay type: cell-based, human; conditions: phenformin 1 mM, 1 hr; for phosphorylation level (activation) of AMPK: HeLa S3 cell without ATP5B over-expression (empty vector- or pcDNA-LKB1-transferred), concentration of compounds A and B not given; for activation of AMPK in cell over-expressing human ATP5B: pcDNA-ATP5B-transferred HeLa S3 cell, metformin 10 mM
Method: This expression plasmid pcDNA-LKB1 and the pcDNA-ATP5B prepared in the aforementioned Example 5(1) or an empty vector (pcDNA3.1) (Invitrogen) were transferred into HeLa S3 cell. The HeLa S3 cell (ATCC) was cultured in a 6 well culture plate (35 mm in well diameter) until it reached a state of 70% confluent, by adding 2 ml of a minimum essential medium DMEM (Gibco) containing 10% fetal bovine serum (Sigma) to each well of the culture plate. The medium was substituted by 1 ml per well of a serum-free medium OPTI MEM I (Invitrogen), and 3.0 μg/well of each of the empty vector (pcDNA3.1), pcDNA-LKB1 and pcDNA-ATP5B was transiently transferred using Lipofect amine 2000 (Invitrogen). After 12 hours of the culturing, this was substituted by 2 ml/well of DMEM containing 10% of fetal bovine serum from which low molecular substances had been removed by a charcoal treatment, and further cultured for 36 hours. This was further cultured for 1 hour (1 hr) under a condition of adding phenformin (Sigma) to a final concentration of 1 mM or the solvent (DMSO) alone. The medium was discarded, the cells were washed with a phosphate buffer (to be referred to as PBS hereinafter, and then the cells were lysed by adding 0.15 ml of the aforementioned buffer A (however, the NaCl concentration was 150 mM, and various phosphatase inhibitors; 2 mM Na3VO4, 10 mM NaF, 25 mM β-glycerophosphate, 0.2 mM Na2MoO4, 20 nM okadaic acid, were added). The activity of AMPK in the cells was detected at the level of phosphorylation of molecules by a conventionally known SDS electrophoresis and a western blotting which uses an anti-phosphorylation AMPK antibody (Phospho-AMPK-α(Thr172) Antibody, Daiichi Pure Chemicals). In this case, in order to confirm that there is no difference in the amount of protein of AMPKα (an AMPK subunit which undergoes phosphorylation) among samples, a western blotting which uses an anti-AMPKα antibody (Daiichi Pure Chemicals) was simultaneously carried out. […] However, in the cell in which human ATP5B was expressed by transferring pcDNA-ATP5B, activation of AMPK by phenformin treatment was not found.

human ATP5B [2] = molecular target: T1, human ATP5B; assay: GST-DHFR / MTX-phenformin GST pull-down of 35S-labeled ATP5B; assay type: binding
Method: Promega) and 0.74 MBq of a radioisotope (redivue Pro-mix L-[35S]; Amersham) and in accordance with the protocols attached thereto. A 15 μl portion of this human ATP5B protein preparation liquid and 1 μg for each of the GST protein or GST-DHFR, purified on the glutathione Sepharose beads, were mixed and shaken at 4° C. for 1 hour after adding 0.3 ml of buffer A thereto. Thereafter, the protein binding to the GST protein or GST-DHFR on beads was co-precipitated by centrifugation. After repeating this operation 4 times, proteins in the precipitate were separated by SDS polyacrylamide gel electrophoresis in accordance with a conventionally known method, and the protein bound to the probe was detected by an autoradiography.

SMILES | action to accelerate expression of TNF-α (TNF-α; TARDBP high expression cell, compared with control cell) | increase of expression of TNF-α (TNF-α; control cell (empty vector HeLa S3), 16 hours) | blood lactic acid level (db/db mouse) | hypoglycemic action (blood sugar level) (db/db mouse) | influence on binding of ATP5B and MTX-phenformin (human ATP5B [1]) | phosphorylation level (activation) of AMPK (AMPK) | activation of AMPK in cell over-expressing human ATP5B (AMPK) | binding with human ATP5B (band of about 60 kDa, autoradiography) (human ATP5B [2]; 10 μM MTX-phenformin fixed to GST-DHFR, wild type ATP5B) | binding to the ATP5B protein with increasing concentration (human ATP5B [2]; MTX-phenformin 1.0, 10, 100 μM)
C=C1[C@@H](O)[C@@H]2O[C@]3(CC[C@H](/C=C/[C@@H](C)[C@@H]4CC(C)=C[C@@]5(O[C@H](C[C@@](C)(O)C(=O)O)CC[C@H]5O)O4)O3)CC[C@H]2O[C@@H]1[C@@H](O)C[C@H](C)[C@H]1O[C@@]2(CCCCO2)CC[C@H]1C [okadaic acid] | almost the same | up to 80 times | – | – | – | – | – | – | –
Oc1ccccc1/C=N/c1nc[nH]n1 [compound A, 2-[(E)-(1H-1,2,4-triazol-3-ylimino)methyl]phenol] | – | – | did not induce increase; also recorded: without causing in vivo accumulation of lactic acid | hypoglycemic action after 90 minutes and 180 minutes having a significant difference; also recorded: show hypoglycemic action | obstruct binding of ATP5B and MTX-phenformin | significant AMPK activation ability | disappeared | – | –
CN(Cc1cnc2nc(N)nc(N)c2n1)c1ccc(C(=O)N[C@@H](CCC(=O)NCCCNC(=N)NC(=N)N)C(=O)O)cc1.Cl.Cl [MTX-phenformin, (2S)-5-[(3-{[{[amino(imino)methyl]amino}(imino)methyl]amino}propyl)amino]-2-({4-[[(2,4-diaminopteridin-6-yl)methyl](methyl)amino]benzoyl}amino)-5-oxopentanonic acid dihydrochloride] | – | – | – | – | – | – | – | detected in the form of binding to the GST-DHFR, only under the condition of adding the MTX-phenformin | clearly detected
CN(C)C(=N)N=C(N)N [metformin] | – | – | significant increase | significant hypoglycemic action | – | – | not found | – | –
Nc1nc(Cl)c2nc[nH]c2n1 [compound B, 6-chloro-9H-purine-2-amine] | – | – | – | hypoglycemic action after 90 minutes and 180 minutes having a significant difference; also recorded: show hypoglycemic action | obstruct binding of ATP5B and MTX-phenformin | significant AMPK activation ability | disappeared | – | –
